Like-named read-outs stand apart in the source and are kept apart here. Each block holds one molecule with its values, some of them ahead of it. Where a SMILES comes first, the peptide text is derived from it. Bridges are numbered along the chain shown (N, C = ends). [ ]: non-standard residue; d: D form. The star is where a group is joined. Ileψ(thiazoline)Cys = CC[C@H](C)[C@H](N)C1=N[C@H](C(=O)*)CS1; dOrn = NCCC[C@@H](N)C(=O)O
Experiments:
[1] = target: tissue factor (TF) coagulant activity (Homo sapiens, UniProt P13726); experiment: TF coagulant activity (Xa generation) on HaCaT cells; type: cell-based
[2] = target: PDI association with TF (Homo sapiens, UniProt P07237); experiment: Cell surface MPB/NHS labelling and TF immunoprecipitation (PDI association with TF)
[3] = target: TF-PAR2 complex (Homo sapiens, UniProt P13726); experiment: TF-PAR2 complex co-immunoprecipitation from HaCaT cells; type: cell-based; conditions: Hg2+ pretreatment, high Ca2+ cells
From the text: Additional studies as illustrated in FIG. 7 indicate that TF-VIIa signaling requires TF.PAR2 complex formation. […] Loading controls were not feasible due to background, because no PAR suitable antibody from a different species was available for Western-blotting. […] MPB-labeled cells were immunoprecipitated with MAb-9C3 or MAb-10H10 and probed for PDI, TF or thiol-biotinylation with MPB.

[4] = tested on: TF-VIIa signaling; experiment: TF-VIIa signaling in HaCaT cells (MAP kinase phosphorylation)

Chain of tissue factor (TF) coagulant activity (P13726 33-295): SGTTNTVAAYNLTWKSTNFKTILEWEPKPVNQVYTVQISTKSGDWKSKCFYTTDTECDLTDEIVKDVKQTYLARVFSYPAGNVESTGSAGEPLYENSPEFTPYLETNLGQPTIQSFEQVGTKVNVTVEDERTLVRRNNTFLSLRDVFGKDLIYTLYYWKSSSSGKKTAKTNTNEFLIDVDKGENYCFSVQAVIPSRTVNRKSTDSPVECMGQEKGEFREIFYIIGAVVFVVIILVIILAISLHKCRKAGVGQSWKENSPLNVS
Chain of PDI association with TF (P07237 18-508): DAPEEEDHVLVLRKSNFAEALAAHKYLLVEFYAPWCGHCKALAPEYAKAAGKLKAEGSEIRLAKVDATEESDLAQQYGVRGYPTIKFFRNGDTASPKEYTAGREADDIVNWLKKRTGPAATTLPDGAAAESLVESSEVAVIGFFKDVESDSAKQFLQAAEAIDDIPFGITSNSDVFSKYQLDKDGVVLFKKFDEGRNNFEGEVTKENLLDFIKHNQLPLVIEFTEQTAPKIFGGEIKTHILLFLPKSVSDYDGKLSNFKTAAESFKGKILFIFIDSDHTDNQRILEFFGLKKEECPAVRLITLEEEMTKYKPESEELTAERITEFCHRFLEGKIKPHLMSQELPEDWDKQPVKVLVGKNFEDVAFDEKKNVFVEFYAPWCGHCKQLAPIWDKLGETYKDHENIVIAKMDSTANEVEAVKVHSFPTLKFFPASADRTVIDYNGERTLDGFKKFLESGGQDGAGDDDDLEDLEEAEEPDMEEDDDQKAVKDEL
Chain of TF-PAR2 complex (P13726 33-295, one chain of several): as the sequence (P13726 33-295) above

Structure (SMILES): N[C@@H](CCC(=O)N[C@@H](CS)C(=O)NCC(=O)O)C(=O)O [GSH, reduced glutathione]
- TF coagulant activity after Hg2+-induced activation and washout [1]: no effect on TF activity

Structure (SMILES): [Cl][Hg][Cl] [HgCl2]
- Concentration required to enhance TF coagulant activity [1]: 50 to 100 µM
- HgCl2 activation of coagulation in the presence of bacitracin [1]: did not increase coagulation in the presence of bacitracin
- TF coagulant activity in high Ca2+ cells [1]: increased TF coagulant activity substantially
- TF coagulant activity in low Ca2+ cells [1]: little effect
- Association (co-precipitation) of PDI with TF [2]: specifically disrupted the association of PDI with TF
- PAR2 complex formation with TF in MAb-5G9 immunoprecipitates [3]: abolished PAR2 complex formation with TF

Structure (SMILES): N[C@@H](CCC(=O)N[C@@H](CSN=O)C(=O)NCC(=O)O)C(=O)O [S-nitrosoglutathione]
- TF coagulant activity after Hg2+-induced activation and washout [1]: sufficient to suppress TF coagulant activity

- HgCl2 activation of coagulation in the presence of bacitracin ([1]; HgCl2 with bacitracin): reversible inhibitor of HgCl2 activation
Structure (SMILES): CC[C@H](C)[C@H](N)C1=N[C@H](C(=O)N[C@@H](CC(C)C)C(=O)N[C@H](CCC(=O)O)C(=O)N[C@H](C(=O)N[C@H]2CCCCNC(=O)[C@H](CC(N)=O)NC(=O)[C@@H](CC(=O)O)NC(=O)[C@H](Cc3cnc[nH]3)NC(=O)[C@@H](Cc3ccccc3)NC(=O)[C@H]([C@@H](C)CC)NC(=O)[C@@H](CCCN)NC2=O)[C@@H](C)CC)CS1 [bacitracin] ({Ileψ(thiazoline)Cys}-L[dE]IK[dOrn]I[dF]H[dD]N; lactam 4-C)
- TF coagulant activity in high Ca2+ cells ([1]; high Ca2+ HaCaT cells, 100 μM HgCl2 for 2 minutes, bacitracin 3 mM): slightly increased coagulant function of TF
- TF-VIIa signaling ([4]; HaCaT cells, 10 nM VIIa): inhibited TF-VIIa signaling
- Association (co-precipitation) of PDI with TF ([2]; high Ca2+ HaCaT cells): prevented the co-precipitation of PDI with TF

Structure (SMILES): C[C@@H]1C[C@@H]([C@H](O)CC2CC(=O)NC(=O)C2)C(=O)[C@@H](C)C1 [cycloheximide]
- TF-VIIa signaling [4]: prevented TF-VIIa signaling
